The results in this text go back to publication PMC3944389, “Differential Neuroprotective Effects of 5′-Deoxy-5′-Methylthioadenosine” (PLoS ONE, 2014).

The test system of series [1] is C57Bl mice treated with MPTP. The experiment in a line: MPTP mouse model of Parkinson's disease, stereological counting of TH+ neurons. The note with it: MTA 30 mg/kg, MSX-3 10 mg/kg (legend: 9 mg/kg), alone or combined; MPTP 30 mg/kg i.p. 5 days. Format: in vivo. On the procedure:
12-week-old male C57Bl mice from Charles River (Barcelona, Spain) were injected i.p. with 30 mg/kg 1-methyl-4-phenyl-1,2,3,6-tetrahydropyridine (MPTP, Sigma-Aldrich) on five consecutive days. Subsequently, MTA (30 mg/kg) and/or the A2A adenosine receptor (A2AR, 10 mg/kg) antagonist, MSX-3 (Sigma-Aldrich), was administered one day before starting MPTP treatment and 1 h after each MPTP injection (n = 6 in each experimental group). We used mice in the MPTP model because rats are resistant to systemic MPTP administration and thus, the rat MPTP model requires stereotaxic MPTP injection directly into the nigrostriatal fibers. […]
The reference volume was calculated according to Cavalieri principles from images obtained with a 2× objective using a point count array. The cross-sectional area of the nucleus was measured and the reference volume (Vr) for the entire nucleus was estimated using the following equation: [drawing 1] where T is the thickness of the sections, a/p is the area of each point and Pi is the number of points that landed within the area. The region of interest to estimate the area was outlined at low magnification (4×), and the number of labeled neurons was calculated under 100× magnification (with oil immersion) using randomized meander sampling and the optical dissector methods. […]

The subject of series [2] is rat mixed cultures of neurons and astrocytes. The experiment in a line: Oxygen-glucose deprivation (OGD) with iodoacetate, LDH release. Format: cell-based. On the procedure: Finally, to prepare neuron-astrocyte co-cultures, neurons were resuspended in B27 Neurobasal medium plus 10% of foetal bovine serum (FBS) and then seeded onto a monolayer of astrocytes in 24-well plates at a density of 1–2×10^5 cells per well, the astrocytes having been prepared beforehand, as described elsewhere. One day later, the medium was replaced with B27-Neurobasal plus 10% FBS medium, and the cells were maintained at 37°C in 5% CO2. The cultures were used 8–9 days after plating. Neurons and astrocytes were identified with antibodies against microtubule-associated protein-2 and GFAP, respectively.
Ischemic damage was induced by incubating cell cultures for 1 h in a hyperbaric chamber in a nitrogen-saturated buffer containing: 130 mM NaCl, 5.4 mM KCl, 0.1323 mM CaCl2, 0.26 mM NaHCO3, 0.8 mM MgCl2, 1.18 mM NaH2PO4, 10 mM sucrose (OGD plus sucrose) and iodoacetate (IAA, 20 or 50 µM). IAA is a glycolytic blocker typically used in OGD experiments to simulate ischemic conditions. After the insult, the cells were incubated under normoxic conditions for an additional 24 h in the presence of glucose but in the absence of IAA. Distinct reagents were added during ischemia to evaluate their neuroprotective activity by assessing cell viability and cell death in the cultures.
The cell status was assessed by measuring the release of lactate dehydrogenase (LDH) from dead cells. LDH was measured spectrophotometrically at 490 nm on a 96-well plate reader using the Cytotox 96 Kit according to the manufacturer's instructions (Promega). The LDH release was defined by the ratio of LDH released to the total LDH present in the cell at the beginning of the treatment.
On the technique in general: LDH in the medium is a marker of cell lysis.

The subject of series [3] is co-culture of bovine-brain endothelial cells (BBECs) and newborn rat astrocytes. The experiment in a line: In vitro cell model of transport across the BBB. Format: in vitro ADME. On the procedure:
A in vitro cell model of BBB permeability was established using a co-culture of bovine-brain endothelial cells (BBECs) and newborn rat astrocytes. The cells were first cultured in 24-well (Transwell^R) permeable supports with a surface area of 0.33 cm^2 and a pore size of 0.4 µm (Corning), the upper surface of which was coated with collagen type IV and fibronectin. The inserts were then placed upside down in a large petri dish, and 40 µL of a suspension (containing approximately 45,000 astrocytes) was placed on the bottom of each filter. The petri dish was incubated at 37°C for 1 h, and 40 µL of fresh DMEM+S was added to the bottom of each filter every 15 min. The inserts were then transferred back to the plate and incubated at 37°C in 5% CO2 for 3 d. Then, 2 h before seeding the BBECs, the medium was replaced by DMEM+S supplemented with 125 µg/mL heparin and 2 h later, the cells were seeded onto the inserts (45,000 cells per filter). The plate was incubated at 37°C in 5% CO2 for 3 more days, after which the medium was replaced by DMEM+S supplemented with cyclic adenosine monophosphate (cAMP) and RO-20-1724, and kept at 37°C in 5% CO2. On day 8 of the co-culture, the transendothelial electrical resistance (TEER) was measured to determine whether the system was ready for transport studies. To validate the maturity of the model, permeability assays with lucifer yellow (LY) were performed in parallel as a marker of the integrity of the in vitro barrier. During the permeability assay, the samples were co-incubated with LY (20 µM) to assess the integrity of the cellular monolayer during the assay.

As to 5′-deoxy-5′-methylthioadenosine [MTA], the “neuroprotection: TH+ neurons in the substantia nigra” value in series [1] is recorded as “not statistically significant”. Besides, the “protection against OGD (cell death, LDH release)” value in series [2] (IAA 20 and 50 µM, MTA 10 µM or 100 µM, APV 100 µM) was “significant”; in series [2] (supramaximal dose of MTA, 1 mM) it was “neither protective nor did it lead to greater damage than OGD itself”. Also, in series [3], the “Pe x 10^−6 (cm/s)” value is recorded as 4.5 x 10^−6 cm/s. In series [3], the “effective permeability coefficient (Pe)” value amounted to 4.5 ×10⁻⁶ cm/s.
